The values below come from paper PMC9143817 (Molecules, 2022).

Like-named read-outs stand apart in the source and are kept apart here.

As a reminder, the IC50 is the concentration needed to halve the response being measured. By Ki is commonly meant the equilibrium dissociation constant of an inhibitor or competing ligand from its target.

The nature of experiment [1]: DMPD^•+-scavenging activity. From the text: In this study, DMPD radicals were generated in situ by oxidation with ferric chloride. […] (as a biologically active and bright yellow chemical produced by Curcuma longa species).
Experiment [2] can be described thus: ABTS^•+-scavenging activity. From the text: A ABTS^•+-scavenging assay measured the ability of pure compounds to decrease the color, reacting directly with the ABTS radical.
The nature of experiment [3]: DPPH^•-scavenging activity (Blois method). From the text: Radical-scavenging assays are often used for screening the antioxidant properties of pure or novel synthesized compounds. For this purpose, the most commonly and widely used radical scavenging method is the DPPH radical-scavenging assay.
For orientation: DPPH is a stable violet radical that fades when it is reduced.

Details of experiment [4]: method as in ref 3 (usnic acid), 46 (caffeic acid), 47 (uric acid), 48 (tannic acid), 49 (caffeic acid phenethyl ester); concentration or dose not given beside the values. Particulars: at similar concentrations; ref 3 (usnic acid), 46 (caffeic acid), 47 (uric acid), 48 (tannic acid), 49 (caffeic acid phenethyl ester); cited from earlier work.
Experiment [5] deals with butyrylcholinesterase (BChE) (Equus caballus, UniProt P81908). Put plainly: biochemical.
The target in experiment [6] is T1, carbonic anhydrase II isoenzyme (hCA II) (Homo sapiens, UniProt P00918).
T1 construct: Human erythrocytes were used as the CA II isoenzyme source; from tissue; host or cells: human erythrocytes
As to the kind of experiment: CA II inhibition (esterase activity). The experiment is classed as biochemical.
Method: Human erythrocytes were used as the CA II isoenzyme source. Fresh human erythrocytes were centrifuged at 10,000× g for 30 min. Then, they were precipitated and the serum was separated and adjusted with solid Tris to pH 8.7 [99]. The CA II isoenzyme was purified using Sepharose-4B-L-Tirozyne-sulfanylamide affinity column chromatography [100]. […] During the purification and inhibition process of hCA II, esterase activity was examined.

In another experiment the target is α-glycosidase. Put plainly: α-Glycosidase inhibition (p-NPG substrate). The class given is biochemical. The conditions noted are these: read-out: IC50 (nM) α-Gly. On the procedure: The absorbances of samples were measured at 405 nm. One α-glycosidase unit was the enzyme quantity, which catalyzes […] of substrate per minute (pH 7.4).
Lineweaver–Burk graphs were used for the determination of Ki values and other inhibition parameters.

In experiment [7] the target is T2, acetylcholinesterase (AChE) (Electrophorus electricus, UniProt O42275). Put plainly: biochemical.
Details of experiment [8]: concentration or dose not given beside the values. The conditions noted are these: at similar concentrations; ref 3 (usnic acid), 50 (eugenol), 51 (resveratrol), 52 (taxifolin), 53 (olivetol); cited from earlier work.
Experiment [9] concerns the target T2, acetylcholinesterase (AChE). The conditions noted are these: literature values, cited from earlier work.
Setting [10] is: ref 53 (olivetol), 59 (taxifolin).

T2 sequence (O42275 24-633): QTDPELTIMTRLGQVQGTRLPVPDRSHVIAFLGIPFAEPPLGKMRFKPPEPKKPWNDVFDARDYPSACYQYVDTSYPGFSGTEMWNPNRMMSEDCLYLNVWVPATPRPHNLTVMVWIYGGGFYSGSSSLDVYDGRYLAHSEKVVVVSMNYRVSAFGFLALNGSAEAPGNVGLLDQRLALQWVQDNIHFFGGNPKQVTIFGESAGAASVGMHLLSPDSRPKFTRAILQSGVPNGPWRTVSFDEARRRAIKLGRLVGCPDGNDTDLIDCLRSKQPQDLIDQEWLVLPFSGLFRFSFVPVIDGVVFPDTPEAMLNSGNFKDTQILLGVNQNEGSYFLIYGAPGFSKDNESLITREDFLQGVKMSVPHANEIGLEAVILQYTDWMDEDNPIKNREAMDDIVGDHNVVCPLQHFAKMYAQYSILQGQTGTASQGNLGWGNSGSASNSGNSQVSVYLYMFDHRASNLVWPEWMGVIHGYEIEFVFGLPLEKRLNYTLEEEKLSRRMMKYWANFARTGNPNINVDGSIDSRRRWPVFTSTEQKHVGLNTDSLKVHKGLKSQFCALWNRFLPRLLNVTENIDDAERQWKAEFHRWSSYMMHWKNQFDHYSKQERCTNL
Chain of butyrylcholinesterase (BChE) (P81908 whole entry): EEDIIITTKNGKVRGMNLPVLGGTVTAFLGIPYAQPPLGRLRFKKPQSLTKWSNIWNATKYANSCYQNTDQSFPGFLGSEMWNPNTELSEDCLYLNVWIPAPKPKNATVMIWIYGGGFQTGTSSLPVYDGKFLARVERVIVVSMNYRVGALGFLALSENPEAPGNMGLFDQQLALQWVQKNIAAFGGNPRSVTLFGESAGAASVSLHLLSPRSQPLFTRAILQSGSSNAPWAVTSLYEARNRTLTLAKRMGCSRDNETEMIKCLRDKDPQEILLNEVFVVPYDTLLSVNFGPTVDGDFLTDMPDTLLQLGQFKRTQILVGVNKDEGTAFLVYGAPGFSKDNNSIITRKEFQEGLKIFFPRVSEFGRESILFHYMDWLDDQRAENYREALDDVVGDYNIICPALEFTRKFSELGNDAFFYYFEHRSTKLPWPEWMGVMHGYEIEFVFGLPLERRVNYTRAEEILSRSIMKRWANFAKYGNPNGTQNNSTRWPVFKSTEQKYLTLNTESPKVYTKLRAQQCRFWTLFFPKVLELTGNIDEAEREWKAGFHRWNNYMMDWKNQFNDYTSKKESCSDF

Turning to `COc1ccc(O)c(C(C)(C)C)c1` [BHA, Butylated hydroxyanisole], the “DMPD^•+ Scavenging IC50” value in experiment [1] was found to be 11.99 µg/mL. For the same compound, in experiment [2], the “ABTS^•+ Scavenging IC50” value was 5.07 µg/mL. Further, the “DPPH^• Scavenging IC50” value in [3] amounted to 10.10 µg/mL.
The matching figures for `Cc1cc(C(C)(C)C)c(O)c(C(C)(C)C)c1` [BHT, butylated hydroxytoluene]: 8.72 µg/mL, 6.99 µg/mL and 25.95 µg/mL.
As to `O=C(/C=C/c1ccc(O)c(O)c1)OCCc1ccccc1` [CAPE, caffeic acid phenethyl ester], the “absorbance values for Fe^3+-reducing activity” value in experiment [4] was 2.509.
`O=c1oc2cc(O)ccc2c2oc3cc(O)ccc3c12` [Coumestrol, 3,9-dihydroxy-6-benzofuran [3,2-c] chromenone]: in experiment [1], the “DMPD^•+ Scavenging IC50” value is 12.81 µg/mL. Further, the IC50 in experiment [5] came to 18.2 nM; in [6], 44 nM; on α-glycosidase it was 27.5 nM; in experiment [7], 21.1 nM. Besides, the values for the Ki in [5] (Lineweaver–Burk) and in experiment [6] were 21.7 ± 2.23 nM and 0.0238 ± 0.00217 µM, respectively. Further, the “ABTS^•+ Scavenging IC50” value in experiment [2] came to 12.24 µg/mL. The “DPPH^• Scavenging IC50” value in experiment [3] was 25.95 µg/mL.
As to `Cc1c(C)c2c(c(C)c1O)CCC(C)(C(=O)O)O2` (stereo not drawn) [Trolox], in experiment [1], the “DMPD^•+ Scavenging IC50” value worked out at 4.33 µg/mL. The “ABTS^•+ Scavenging IC50” value in [2] turned out to be 6.16 µg/mL. For the same compound, in experiment [3], the “DPPH^• Scavenging IC50” value is 7.059 µg/mL.
Consider `O=C(O)/C=C/c1ccc(O)c(O)c1` [caffeic acid], for which the “absorbance values for Fe^3+-reducing activity” value in experiment [4] is on record as 2.769.
Turning to `C=CCc1ccc(O)c(OC)c1` [eugenol], the “absorbance values for Cu^2+-reducing activity” value in experiment [8] is given as 0.762.
Consider `CCCCCc1cc(O)cc(O)c1` [olivetol], for which the “absorbance values for Cu^2+-reducing activity” value in [8] is listed as 1.314. In addition, the “Ki for AChE” value in experiment [9] (setting [10]) is 5.13 µg/mL.
For the compound `O=C1c2c(O)cc(O)cc2OC(c2ccc(O)c(O)c2)C1O` (stereo not drawn) [taxifolin], the “absorbance values for Cu^2+-reducing activity” value in [8] was 0.750. The Ki in [9] (setting [10]) is 54.9 µM.
Turning to `O=c1[nH]c(=O)c2[nH]c(=O)[nH]c2[nH]1` [uric acid], the “absorbance values for Fe^3+-reducing activity” value in experiment [4] is listed as 0.432.
Consider `CC(=O)c1c(O)c(C)c(O)c2c1OC1=CC(=O)C(C(C)=O)C(=O)C12C` (stereo not drawn) [usnic acid], for which the “absorbance values for Cu^2+-reducing activity” value in [8] is recorded as 0.277. Also, the “absorbance values for Fe^3+-reducing activity” value in experiment [4] is listed as 0.278. In addition, the Ki in [9] (ref 3 (usnic acid), 58 (CAPE)) was 0.00339 µM.
For the compound `Cc1c(C)c2c(c(C)c1O)CC[C@@](C)(CCC[C@H](C)CCC[C@H](C)CCCC(C)C)O2` [α-Tocopherol], in experiment [1], the “DMPD^•+ Scavenging IC50” value is 7.11 µg/mL. The “ABTS^•+ Scavenging IC50” value in [2] is 8.37 µg/mL. The “DPPH^• Scavenging IC50” value in experiment [3] amounted to 11.31 µg/mL.
Turning to tannic acid, in experiment [4], the “absorbance values for Fe^3+-reducing activity” value was 2.428.
